Data taken from patent publication US12391737B2, “Soluble NPY2 receptor agonists” (Boehringer Ingelheim International GmbH, priority 2020, dated 2025).

Assays:
[1] = molecular target: T1, Human Neuropeptide Y2 Receptor (Homo sapiens, UniProt P49146); experiment: Radioligand binding competition assay (RLB); settings: Table 3, 125I-PYY(1-36) competition; read-out: Ki
T1 construct: purchased CHEMICON HTS066M
T1 sequence (P49146 1-381): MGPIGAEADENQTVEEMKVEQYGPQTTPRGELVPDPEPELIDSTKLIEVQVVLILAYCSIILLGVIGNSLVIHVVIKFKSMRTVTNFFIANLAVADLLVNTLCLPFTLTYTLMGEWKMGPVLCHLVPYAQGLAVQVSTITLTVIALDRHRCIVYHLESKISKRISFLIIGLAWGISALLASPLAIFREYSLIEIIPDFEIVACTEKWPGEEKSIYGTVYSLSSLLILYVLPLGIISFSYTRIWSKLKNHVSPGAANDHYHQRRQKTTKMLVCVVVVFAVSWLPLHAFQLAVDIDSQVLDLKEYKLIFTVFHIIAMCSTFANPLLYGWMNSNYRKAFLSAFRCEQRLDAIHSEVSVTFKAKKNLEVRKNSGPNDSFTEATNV
In short: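 Competition binding used membranes expressing the receptor (0.5 μg protein/well) in 50 mM HEPES, 5 mM MgCl2, 1 mM CaCl2, pH 7.4 with 0.2% ovalbumin, incubated 2 h at room temperature with shaking. Bound radioligand was collected by filtration onto PEI-soaked GF/C filters and counted; IC50 from nonlinear sigmoidal fits.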

Solubility determination = settings: for Sol6: pH 6; for Sol7: pH 7
In short: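 First, TFA-salt peptide was added to 0.1 M sodium diphosphate (pH 6.4 or 7.0) to 10 mg/ml and shaken 2 h at room temperature. Next, insoluble material was filtered off. Finally, filtrate and control, each 1 mg/ml in 50% acetonitrile, were compared by reversed-phase chromatography.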

CC[C@H](C)[C@H](NC(=O)[C@H](CCC(=O)O)NC(=O)[C@H](CCC(=O)O)NC(=O)[C@@H]1CCCN1C(=O)[C@H](CCC(N)=O)NC(=O)[C@H](C)NC(=O)[C@H](CC(=O)O)NC(=O)[C@H](CCC(=O)O)NC(=O)[C@H](CCC(=O)O)NC(=O)[C@@H]1CCCN1C(=O)[C@H](CCCCNC(=O)CCCCCNC(=O)CC[C@H](NC(=O)CCCCCCCCCCCCCCCCC(=O)O)C(=O)O)NC(=O)[C@H](CCC(=O)O)NC(=O)[C@@H]1CCCN1C(=O)[C@H](C)NC(=O)CC(C)C)C(=O)N[C@@H](CCC(N)=O)C(=O)N[C@@H](CCCNC(=N)N)C(=O)N[C@@H](Cc1ccc(O)cc1)C(=O)N[C@@H](Cc1ccc(O)cc1)C(=O)N[C@H](C(=O)N[C@@H](CO)C(=O)N[C@@H](CC(C)C)C(=O)N[C@@H](CCCNC(=N)N)C(=O)N[C@@H](Cc1c[nH]cn1)C(=O)N[C@@H](Cc1ccc(O)cc1)C(=O)N[C@@H](Cc1ccc(O)cc1)C(=O)N[C@@H](CC(N)=O)C(=O)N[C@@H](Cc1c[nH]c2ccccc12)C(=O)N[C@@H](CC(C)C)C(=O)N[C@H](C(=O)N[C@@H](CCCNC(=N)N)C(=O)N[C@@H](CCC(N)=O)C(=O)N[C@@H](CCCNC(=N)N)C(=O)N[C@@H](Cc1ccc(O)cc1)C(N)=O)[C@@H](C)O)C(C)C [Compound 81, N{alpha-4}-(3-methylbutanoyl)-N{epsilon-7}-(6-[(4S)-4-carboxy-4-(17-carboxyheptadecanamido)butanamido]hexanoyl)-[4A,7K,9E,13Q,17I,18Q,22V,28Y,30W,31L]-hPYY(4-36)]
Ki [1]: 2.65 nM
Sol6 (Solubility determination): 8.9 mg/mL
Sol7 (Solubility determination): 8.9 mg/mL

CC[C@H](C)[C@H](NC(=O)[C@H](CCC(=O)O)NC(=O)[C@H](CCC(=O)O)NC(=O)[C@@H]1CCCN1C(=O)[C@H](CO)NC(=O)[C@H](C)NC(=O)[C@H](CC(=O)O)NC(=O)[C@H](CCC(=O)O)NC(=O)[C@@H]1CCCN1C(=O)[C@@H]1CCCN1C(=O)[C@H](CCCCNC(=O)CCCCCNC(=O)CC[C@H](NC(=O)CCCCCCCCCCCCCCCCC(=O)O)C(=O)O)NC(=O)[C@H](C)NC(=O)[C@@H]1CCCN1C(=O)[C@H](C)NC(=O)CC(C)C)C(=O)N[C@@H](CCC(N)=O)C(=O)N[C@@H](CCCNC(=N)N)C(=O)N[C@@H](Cc1ccc(O)cc1)C(=O)N[C@@H](Cc1ccc(O)cc1)C(=O)N[C@H](C(=O)N[C@@H](CO)C(=O)N[C@@H](CC(C)C)C(=O)N[C@@H](CCCNC(=N)N)C(=O)N[C@@H](Cc1c[nH]cn1)C(=O)N[C@@H](Cc1ccc(O)cc1)C(=O)N[C@@H](Cc1ccc(O)cc1)C(=O)N[C@@H](CC(N)=O)C(=O)N[C@@H](Cc1c[nH]c2ccccc12)C(=O)N[C@@H](CC(C)C)C(=O)N[C@H](C(=O)N[C@@H](CCCNC(=N)N)C(=O)N[C@@H](CCC(N)=O)C(=O)N[C@@H](CCCNC(=N)N)C(=O)N[C@@H](Cc1ccc(O)cc1)C(N)=O)[C@@H](C)O)C(C)C [Compound 82, N{alpha-4}-(3-methylbutanoyl)-N{epsilon-7}-(6-[(4S)-4-carboxy-4-(17-carboxyheptadecanamido)butanamido]hexanoyl)-[4A,6A,7K,9P,17I,18Q,22V,28Y,30W,31L]-hPYY(4-36)]
Ki [1]: 0.58 nM
Sol6 (Solubility determination): 0.0 mg/mL
Sol7 (Solubility determination): 9.0 mg/mL

CC(C)CC(=O)N[C@@H](C)C(=O)N1CCC[C@H]1C(=O)N[C@@H](CCC(=O)O)C(=O)N[C@@H](CCCCNC(=O)CCCCCNC(=O)CC[C@H](NC(=O)CCCCCCCCCCCCCCCCC(=O)O)C(=O)O)C(=O)N1CCC[C@H]1C(=O)N[C@@H](CCC(=O)O)C(=O)N[C@@H](CCC(=O)O)C(=O)N[C@@H](CC(=O)O)C(=O)N[C@@H](C)C(=O)N[C@H](C(=O)N[C@@H](CO)C(=O)N[C@@H](CCC(=O)O)C(=O)N[C@@H](CCC(=O)O)C(=O)N[C@@H](CC(C)C)C(=O)N[C@@H](CCC(N)=O)C(=O)N[C@@H](CCCNC(=N)N)C(=O)N[C@@H](Cc1ccc(O)cc1)C(=O)N[C@@H](Cc1ccc(O)cc1)C(=O)N[C@H](C(=O)N[C@@H](CO)C(=O)N[C@@H](CC(C)C)C(=O)N[C@@H](CCCNC(=N)N)C(=O)N[C@@H](Cc1c[nH]cn1)C(=O)N[C@@H](Cc1ccc(O)cc1)C(=O)N[C@@H](Cc1ccc(O)cc1)C(=O)N[C@@H](CC(N)=O)C(=O)N[C@@H](Cc1c[nH]c2ccccc12)C(=O)N[C@@H](CC(C)C)C(=O)N[C@H](C(=O)N[C@@H](CCCNC(=N)N)C(=O)N[C@@H](CCC(N)=O)C(=O)N[C@@H](CCCNC(=N)N)C(=O)N[C@@H](Cc1ccc(O)cc1)C(N)=O)[C@@H](C)O)C(C)C)[C@@H](C)O [Compound 83, N{alpha-4}-(3-methylbutanoyl)-N{epsilon-7}-(6-[(4S)-4-carboxy-4-(17-carboxyheptadecanamido)butanamido]hexanoyl)-[4A,7K,9E,13T,14S,18Q,22V,28Y,30W,31L]-hPYY(4-36)]
Ki [1]: 6.91 nM
Sol6 (Solubility determination): 10.0 mg/mL
Sol7 (Solubility determination): 10.0 mg/mL

CC(C)CC(=O)N[C@@H](C)C(=O)N1CCC[C@H]1C(=O)N[C@@H](C)C(=O)N[C@@H](CCCCNC(=O)CCCCCNC(=O)CC[C@H](NC(=O)CCCCCCCCCCCCCCCCC(=O)O)C(=O)O)C(=O)N1CCC[C@H]1C(=O)N[C@@H](CCC(=O)O)C(=O)N[C@@H](CCC(=O)O)C(=O)N[C@@H](CC(=O)O)C(=O)N[C@@H](C)C(=O)N[C@@H](CO)C(=O)N1CCC[C@H]1C(=O)N[C@@H](CCC(=O)O)C(=O)N[C@@H](CCC(=O)O)C(=O)N[C@H](C(=O)N[C@@H](CCC(N)=O)C(=O)N[C@@H](CCCNC(=N)N)C(=O)N[C@@H](Cc1ccc(O)cc1)C(=O)N[C@@H](Cc1ccc(O)cc1)C(=O)N[C@H](C(=O)N[C@@H](CO)C(=O)N[C@@H](CC(C)C)C(=O)N[C@@H](CCCNC(=N)N)C(=O)N[C@@H](Cc1c[nH]cn1)C(=O)N[C@@H](Cc1ccc(O)cc1)C(=O)N[C@@H](Cc1ccc(O)cc1)C(=O)N[C@@H](CC(N)=O)C(=O)N[C@@H](Cc1c[nH]c2ccccc12)C(=O)N[C@@H](CC(C)C)C(=O)N[C@H](C(=O)N[C@@H](CCCNC(=N)N)C(=O)N[C@@H](CCC(N)=O)C(=O)N[C@@H](CCCNC(=N)N)C(=O)N[C@@H](Cc1ccc(O)cc1)C(N)=O)[C@@H](C)O)C(C)C)[C@@H](C)O [Compound 85, N{alpha-4}-(3-methylbutanoyl)-N{epsilon-7}-(6-[(4S)-4-carboxy-4-(17-carboxyheptadecanamido)butanamido]hexanoyl)-[4A,6A,7K,9E,17T,18Q,22V,28Y,30W,31L]-hPYY(4-36)]
Ki [1]: 1.61 nM
Sol6 (Solubility determination): 8.6 mg/mL
Sol7 (Solubility determination): 9.1 mg/mL
